Source: EP1019398B1, “BENZO(5,6)CYCLOHEPTA(1,2-B)PYRIDINE DERIVATIVES USEFUL FOR INHIBITION OF FARNESYL PROTEIN TRANSFERASE” (SCHERING CORPORATION, priority 1997, dated 1998)

Experiments:
COS Cell = COS Cell IC50 (Cell-Based Assay), procedure of WO 95/10516; conditions: one range stated for the listed examples
Experimental: FPT IC50 (inhibition of farnesyl protein transferase. in vitro enzyme assay) and COS Cell IC50 (Cell-Based Assay) were determined following the assay procedures described in WO 95/10516, published April 20. 1995. GGPT IC50 (inhibition of geranylgeranyl protein transferase, in vitro enzyme assay). Cell Mat Assay, and anti-tumor activity (in vivo anti-tumor studies) could be determined by the assay procedures described in WO 95/10516. The disclosure of WO 95/10516 is incorporated herein by reference thereto.

Human tumor cells = assay: Soft Agar Assay (anchorage-independent growth, colony count after MTT staining); format: cell-based; conditions: 0.3% agarose top layer over 0.6% agarose, 10-16 days at 37°C under 5% CO2
Experimental: Anchorage-independent growth is a characteristic of tumorigenic cell lines. Human tumor cells can be suspended in growth medium containing 0.3% agarose and an indicated concentration of a farnesyl transferase inhibitor. The solution can be overlayed onto growth medium solidified with 0.6% agarose containing the same concentration of farnesyl transferase inhibitor as the top layer. After the top layer is solidified, plates can be incubated for 10-16 days at 37°C under 5% CO2 to allow colony outgrowth. After incubation, the colonies can be stained by overlaying the agar with a solution of MTT (3-[4,5-dimethylthiazol-2-yl]-2,5-diphenyltetrazolium bromide, Thiazolyl blue) (1 mg/mL in PBS). Colonies can be counted and the IC50's can be determined.

Structure (SMILES) | IC50 (COS Cell) [nM] | IC50 (Human tumor cells) [nM]
O=C(CN1CC[S+]([O-])CC1)N1CCN(C2c3ccc(Cl)c(Br)c3CCc3cc(Br)cnc32)CC1 (single isomer, unassigned) [Example 39] | 1.8 to 143 | –
O=C(CC1CCOCC1)N1CCC([C@H]2c3ncc(Br)cc3CCc3cc(Cl)cc(Br)c32)CC1 [Example 1] | 1.8 to 143 | –
O=C(C=C1CCOCC1)N1CCC([C@H]2c3ncc(Br)cc3CCc3cc(Cl)cc(Br)c32)CC1 [Example 2] | 1.8 to 143 | –
O=C(CC1CCSCC1)N1CCC([C@H]2c3ncc(Br)cc3CCc3cc(Cl)cc(Br)c32)CC1 [Example 5] | 1.8 to 143 | –
O=C(CC1CCCCO1)N1CCC([C@H]2c3ncc(Br)cc3CCc3cc(Cl)cc(Br)c32)CC1 (some centres unmarked) [Example 8] | 1.8 to 143 | –
O=C(CN1CCSCC1)N1CCC([C@H]2c3ncc(Br)cc3CCc3cc(Cl)cc(Br)c32)CC1 [Example 37] | 1.8 to 143 | –
O=C(CC1CCOCC1)N1CCC(C2c3c(Br)cc(Cl)cc3CCc3cc(Br)c[n+]([O-])c32)CC1 (centres unmarked) [Example 40] | 1.8 to 143 | 8
